Test results from patent US8486381B2, “Methods of modulating intestinal fluid balance” (Amgen Inc., priority 2005, dated 2013).
Entries after “also recorded” stand apart in the source; their conditions may differ. Counter-ions that a name gives are not always drawn. Like-named read-outs stand apart in the source and are kept apart here.

What was measured:
[1] = test system: colonic crypts from Casr^−/−:Gcm2^−/− mice; assay: Net Jv in perfused colonic crypts from CaSR null mice; type: cell-based; conditions: for Effect on net fluid secretion induced by Guanylin and CTX: Casr^−/−:Gcm2^−/−
[2] = test system: isolated rat colonic crypts; assay: Net fluid movement (Jv) in in vitro perfused rat colonic crypts; type: cell-based; conditions: for EC50: Rattus norvegicus, read-out: EC50, attenuation of forskolin-induced net fluid secretion, forskolin 10 μM, 0.1 mM Ca^2+; for Effect on net fluid secretion in presence of forskolin and PLC inhibitor U73122: U73122 10 μM, 0.1 mM calcium
cyclic AMP = assay: Secretagogue-stimulated cyclic AMP accumulation in colonic crypt cell suspensions; type: cell-based
[3] = test system: basolateral Cl^− entry into colonic crypt cells via NKCCl; assay: Cell Cl^− influx measurements (MQAE fluorescence) in colonic crypts; type: cell-based, rat
Protocol: Cl^− Measurements. Cell Cl^− influx measurements (Egan, M. E. et al. Nat. […] Molecular Probes]. After dye loading, crypts were incubated in a Cl^− free HEPES buffer until stable high baseline fluorescence intensity was achieved. Rates of cell Cl^− influx were monitored as rates of reductions in arbitrary MQAE fluorescent units (ΔAFU/min; Ex: 346 nm; EM: 460 nm).

[4] = test system: apical NHE (Na^+/H^+ exchanger); assay: NHE activity: Na^+-dependent proton extrusion from colonocytes; type: cell-based, rat; conditions: forskolin present
From the text: Cyclic nucleotide-dependent fluid loss in secretory […] occurs through reduction in absorptive, and increases in secretory, processes. Lucas, M. L. J. Appl. Microbiol. 90, 7-26, 2001; Golin-Bisello, F. et al. Am. J. Cell. Physiol. 289, […]-[…], 2005. Colonic epithelial crypts provide a model for understanding intestinal fluid transport as they simultaneously absorb and secrete fluid with the direction of net fluid movement (^netJv) depending on the relative magnitudes of these two processes. A major component of fluid absorption in the colon is mediated by parallel Na^+/H^+ (sodium-hydrogen exchanger, NHE) and Cl^-/HCO3^- exchange located at the apical plasma membranes. Kunzelman, K. et al. Physiol. Rev. 82, 245-289, 2002; Donowith, M. et al. Annu. Rev. Physiol. 48, 135-150, 1986. Cyclic nucleotides reduce this Na^+-dependent fluid absorption by inhibiting NHE activity. […] This basal fluid was likely due to the low levels of cell cyclic nucleotides that remain even in the absence of secretagogues. […] To examine if this latter effect of CaSR agonists on fluid absorption resulted from enhanced apical NHE activity, the effects of Ca^2+ on Na^+-dependent proton extrusion from colonocytes were assessed in the presence of forskolin. […] Cell acid loading was accomplished by exposure to NH4Cl and Na^+-dependent cell pH recovery following removal of NH4Cl was assessed as an index of Na^+/H^+ activity. […]

rat colonic crypts = assay: Absorptive fluid movement (netJv with secretion inhibited) in perfused rat colonic crypts; type: cell-based
[5] = test system: colonic crypts from Casr^+/+:Gcm2^+/+ mice; assay: Net Jv in perfused colonic crypts from wild type mice; type: cell-based; conditions: for Effect on net fluid secretion induced by Guanylin and CTX: Casr^+/+:Gcm2^+/+
[6] = test system: proximal and distal colon crypts; type: cell-based, Sprague-Dawley rats
BALB/c mice [7] = conditions: mouse, in vivo
BALB/c mice [8] = conditions: mouse, in vivo; remark: listed apart in the source
cyclic GMP = assay: Secretagogue-stimulated cyclic GMP accumulation in colonic crypt cell suspensions; type: cell-based; conditions: IBMX 1 mM
[9] = test system: proximal or distal colon segments; type: cell-based, Sprague-Dawley rats
[10] = extracellular calcium raised from 0.1 mM to 2 mM

Q: Which results are given for `[Ca+2]` [Ca^2+]?
A: Effect on net fluid secretion induced by Guanylin and CTX [1, 10]: did not; Effect on net fluid secretion induced by Guanylin or STa [2]: reversed net fluid secretion; Effect on net fluid secretion induced by forskolin or cholera toxin [2]: reversed net fluid secretion; Effect on forskolin or cholera toxin induced cyclic AMP production (cyclic AMP): attenuates; Effect on Cl^− entry via NKCCl in the presence of CTX ([3]; calcium increased from 0.1 to 2 mM): inhibited Cl^− entry; Increase in NHE activity ([4]; basolateral bath Ca^2+ raised from 0.1 to 2 mM): 8 fold; Effect on cAMP-mediated reduction in fluid absorption (rat colonic crypts; extracellular Ca^2+ increased to 2 mM): significantly abrogated; Effect on net fluid secretion induced by Guanylin and CTX [5, 10]: reversed net fluid secretion

Q: For `COc1cccc([C@@H](C)NCCCc2ccccc2Cl)c1.Cl` [Compound A, N-(3-[2-chlorophenyl]-propyl)-R-α-methyl-3-methoxybenzylamine HCl], which “Effect on net fluid secretion induced by Guanylin and CTX” value ([1]; 100 nM, 0.1 mM calcium) is on record?
A: Its value is “did not reverse net fluid secretion”.

Q: And the EC50 ([2]; compound in bath)?
A: The EC50 was 0.0051 nM.

Q: And the EC50 ([2]; compound in lumen)?
A: The EC50 was 0.0234 nM.

Q: And the “Effect on net fluid secretion in presence of forskolin and PLC inhibitor U73122” value ([2]; compound added to both luminal and bath)?
A: Its value is “did not completely reverse net fluid secretion”.

Q: What about the “Effect on net fluid secretion in presence of forskolin and PLC inhibitor U73122” value ([2]; compound added to lumen or bath) of the same molecule?
A: Its value is “had no significant effect on reversing net fluid secretion”.

Q: What about the “Effect on rate of forskolin-stimulated Cl^− entry” value ([3]; 100 nM in basolateral fluid) of the same molecule?
A: The value was “significantly reduced”.

Q: And the “Effect on forskolin-induced net fluid secretion in presence of TTX” value [6]?
A: The value was “attenuated forskolin-induced net fluid secretion”.

Q: And the “Increase in NHE activity” value ([4]; Compound A added to the 2 mM Ca^2+-containing bath)?
A: The value was 12 fold.

Q: And the “Effect on cAMP-mediated reduction in fluid absorption” value (rat colonic crypts; added to basolateral bath in the presence of 0.5 mM calcium)?
A: The value was “significantly abrogated”.

Q: And the “Effect on net fluid secretion induced by Guanylin and CTX” value ([5]; 100 nM, 0.1 mM calcium)?
A: The value was “effectively reversed net fluid secretion”.

Q: How did the EC50 ([2]; compound in bath) turn out when `COc1cccc(C(C)NCCCc2ccccc2Cl)c1` (stereo not drawn) [Compound A, S-stereoisomer, N-(3-[2-chlorophenyl]-propyl)-α-methyl-3-methoxybenzylamine HCl] was run?
A: The EC50 was 0.619 nM.

Q: What about the EC50 ([2]; compound in lumen) of the same molecule?
A: The EC50 was 0.756 nM.

Q: With `COc1ccc(CNC(C)c2ccccc2)cc1-c1ccc(C(F)(F)F)cc1` (stereo not shown) [Compound B, N-((6-(methyloxy)-4′-(trifluoromethyl)-1,1′-biphenyl-3-yl)methyl)-1-phenylethanamine] as the molecule, how does the “Mortality 24 hrs (moribund)” value (BALB/c mice [7]) read?
A: Its value is 2/5.

Q: What about the “Volume of fluid accumulating in the small intestine” value (BALB/c mice [7]) of the same molecule?
A: The value was “dose-dependent reduction”.

Q: What about the “Cholera toxin-induced gastrointestinal fluid accumulation” value (BALB/c mice [8]) of the same molecule?
A: The value was “statistically significant reduction”.

Q: `Cn1c(NC[C@@H](N)Cc2ccccc2)nc(-c2ccncc2)c(-c2ccc3ccccc3c2)c1=O` [Compound C, 2-(((2S)-2-amino-3-phenylpropyl)amino)-3-methyl-5-(2-naphthalenyl)-6-(4-pyridinyl)-4(3H)-pyrimidinone] was tested. Which Mortality (BALB/c mice [7]; female, BALB/c) did it give?
A: Its Mortality is 100%.

Q: What does the source list for `CC(C)Cn1c(=O)n(C)c(=O)c2[nH]cnc21` [IBMX, 3-Isobutyl-1-Methylxanthine]?
A: Effect on attenuation of cyclic GMP production by 2.0 mM Ca^2+ (cyclic GMP): reverses this effect; Effect on attenuation of cyclic AMP production by 2.0 mM Ca^2+ (cyclic AMP; IBMX added (1 mM per method)): reverses this effect

Q: For `NC1=N[C@H](O)[C@H]2[C@H]3O[C@]4(O)O[C@@H]([C@@H](O)[C@@]2(N1)[C@@H]4O)[C@]3(O)CO` [TTX, tetrodotoxin], which “Effect on forskolin-induced net fluid secretion” value [6] is on record?
A: Its value is “did not change the ability of forskolin to induce a net fluid secretion”.

Q: And the “Effect on ability of calcimimetics to reverse forskolin-stimulated increase in Isc” value [9]?
A: Its value is “abolished”.

Q: How did the “Effect on forskolin-stimulated increase in cell Cl^−” value ([3]; 100 μM basolateral) turn out when `CCCCNc1cc(C(=O)O)cc(S(N)(=O)=O)c1Oc1ccccc1` [bumetanide] was run?
A: Its value is “abolished”.

Q: What about the “netJv in the absence of secretagogues” value (rat colonic crypts; added to basolateral bath) of the same molecule?
A: Its value is “increased the positive or absorptive ^netJv”.

Q: How did the Absorptive fluid movement (rat colonic crypts; in the presence of bumetanide) turn out when `CCCC(=O)Nc1ncnc2c1ncn2[C@@H]1O[C@@H]2COP(=O)(O)O[C@H]2[C@H]1OC(=O)CCC` [db-cyclic AMP, dibutyryl-cAMP] was run?
A: Its Absorptive fluid movement is “substantially reduced”.

Q: Which “Mean Jv, distal colonic crypts” value [6] does the source give for `C=C[C@@]1(C)CC(=O)[C@]2(O)[C@@]3(C)[C@@H](O)CCC(C)(C)[C@@H]3[C@H](O)[C@H](OC(C)=O)[C@@]2(C)O1` [forskolin] here?
A: The value was −0.33±0.01 nL/min/mm.

Q: And the “Mean Jv, proximal colonic crypts” value [6]?
A: The value was −0.32±0.02 nL/min/mm.

Q: For Guanylin, which “Net fluid movement (Jv) on exposure to secretagogue” value (“Net fluid movement (Jv) on exposure” below) [1] is on record?
A: The value was “induced net fluid secretion”.

Q: And the “Net fluid movement (Jv) on exposure” value [2]?
A: The value was “induced net fluid secretion”.

Q: And the “Net fluid movement (Jv) on exposure” value [5]?
A: The value was “induced net fluid secretion”.

Q: Which “Net fluid movement (Jv) on exposure” value [1] does the source give for cholera toxin here?
A: Its value is “induced net fluid secretion”.

Q: And the “Net fluid movement (Jv) on exposure” value [2]?
A: The value was “induced net fluid secretion”.

Q: And the “cAMP production on exposure to secretagogue” value (cyclic AMP)?
A: Its value is “induce cAMP production; also recorded: induce cyclic AMP production”.

Q: What about the “Net fluid movement (Jv) on exposure” value [5] of the same molecule?
A: The value was “induced net fluid secretion”.
